From article PMC8480782, “Efficient Dimerization Disruption of Leishmania infantum Trypanothione Reductase by Triazole-phenyl-thiazoles” (Journal of Medicinal Chemistry, 2021)
Non-standard residues stand in square brackets, D forms with d. Residues, ends and D or L forms follow the SMILES beside them. Nle = CCCC[C@H](N)C(=O)O

Assays:
[1] = tested on: L. infantum promastigotes; test: Leishmanicidal activity on promastigotes (PI exclusion, flow cytometry); type: cell-based, Leishmania infantum; settings: HepG2 / promastigotes
Protocol: (§1) L. infantum promastigotes (MCAN/ES/89/IPZ229/1/89) were grown in Roswell Park Memorial Institute (RPMI)-1640 medium (Sigma-Aldrich, St. Louis, MO) supplemented with 10% heat-inactivated fetal calf serum (FCS), antibiotics, and 25 mM HEPES (pH 7.2) at 26 °C. L. infantum axenic amastigotes (MCAN/ES/89/IPZ229/1/89) were grown in M199 medium (Invitrogen, Leiden, The Netherlands) supplemented with 10% heat-inactivated FCS, 1 g/L β-alanine, 100 mg/L L-asparagine, 200 mg/L sucrose, 50 mg/L sodium pyruvate, 320 mg/L malic acid, 40 mg/L fumaric acid, 70 mg/L succinic acid, 200 mg/L α-ketoglutaric acid, 300 mg/L citric acid, 1.1 g/L sodium bicarbonate, 5 g/L morpholineethanesulfonic acid (MES), 0.4 mg/L hemin, and 10 mg/L gentamicine, pH 5.4, at 37 °C.
(§2) Drug treatment of L. infantum promastigotes was performed during the logarithmic growth phase at a concentration of 2 × 10^6 parasites/mL at 26 °C for 24 h. […] EC50 was evaluated by flow cytometry by the propidium iodide (PI) exclusion method. After selection of the parasite population based on their forward scatter (FSC) and side scatter (SSC) values, live and dead parasite cells were identified by their permeability to PI. All of the assays were conducted in triplicate in at least three independent experiments. Data were analyzed using a nonlinear regression model with GraFit 6 software (Erithacus, Horley, Surrey, U.K.).

[2] = tested on: L. infantum axenic amastigotes; test: Leishmanicidal activity on axenic amastigotes (PI exclusion, flow cytometry); type: cell-based, Leishmania infantum; settings: HepG2 / axenic amastigotes
Protocol: as §1
Axenization was performed by diluting 0.5 mL of a 7-day stationary phase culture of L. infantum promastigotes (2–3 × 10^7 parasites/mL) in 4.5 mL of amastigotes medium and incubating the culture at 37 °C for 2 or 3 days. L. infantum axenic amastigotes apparition was followed by phase-contrast microscopy using an Eclipse Ti inverted microscope (Nikon, Tokyo, Japan).
as §2

In the case of `CCCC[C@H](NC(=O)[C@H](CCCCN)NC(=O)[C@H](CCCC)NC(=O)[C@H](CO)NC(=O)[C@@H](NC(=O)CNC(=O)[C@@H](NC(=O)[C@H](CO)NC(=O)[C@H](CCC(N)=O)NC(=O)[C@@H](NC(=O)[C@@H](NC(=O)[C@H](CCCCN)NC(=O)[C@@H]1CCCN1C(=O)[C@H](CCCNC(=N)N)NC(=O)[C@H](CCCNC(=N)N)NC(=O)[C@H](CCCNC(=N)N)NC(=O)[C@H](CCCNC(=N)N)NC(=O)[C@H](CCCNC(=N)N)NC(=O)[C@H](CCCNC(=N)N)NC(=O)[C@H](CCCNC(=N)N)NC(=O)[C@H](CCCNC(=N)N)NC(=O)[C@H](CCCNC(=N)N)NC(C)=O)[C@@H](C)CC)[C@@H](C)CC)C(C)C)[C@@H](C)CC)C(N)=O` [R9-peptide 1, reference compound] (Ac-RRRRRRRRRPKIIQSVGIS[Nle]K[Nle]-NH2; N-terminus and C-terminus assumed), the “SIp (ratio of EC50 against human cells to EC50 against promastigotes)” value [1] is reported as 19.9 and the “SIa (ratio of EC50 against human cells to EC50 against amastigotes)” value [2] is reported as 18.1.
